# Assay results as given in patent US20210346336A1, “FURAN DERIVATIVES AS BROMODOMAIN INHIBITORS” (GlaxoSmithKline Intellectual Property (No.2) Limited, priority 2018, published 2021).
# Molecular target: T1, BRD4 BD2 (Homo sapiens, UniProt O60885, Y97A)
# T1 construct: BRD4 (1-477) (Y97A) and (Y390A); made in house; host or cells: E. coli (pET15b vector)
# Experiment: BRD4 BD2 TR-FRET competition assay (mutant tandem bromodomain)
# Format: binding
# Conditions: read-out: pIC50 in the BRD4 BD2 assay (converted)
# Procedure: Bromodomain binding was assessed utilising a time resolved fluorescent resonance energy transfer (TR-FRET) competition assay. To enable this approach a known, high affinity, pan-BET interacting small molecule was labelled with Alexa Fluor® 647, which is a far-red-fluorescent dye (Reference Compound X). Reference Compound X acts as a reporter of bromodomain binding and is the acceptor fluorophore component of the TR-FRET pair. Europium chelate, conjugated to an anti-6*His antibody, was utilised as the donor fluorophore in the TR-FRET pair. […] A TR-FRET signal is generated when the donor and acceptor fluorophores are in close proximity, between 20-80 Å, which is enabled in this assay by binding of Reference Compound X to the bromodomain protein.
# Assay Principle: In order to generate a TR-FRET signal, donor fluorophore is excited by a laser at λ337 nm, which subsequently leads to emission at λ618 nm. If the acceptor fluorophore is in close proximity then energy transfer can occur, which leads to emission of Alexa Fluor® 647 at λ665 nm. In the presence of competitor compound, Reference Compound X can be displaced from binding to the bromodomain. If displacement occurs, the acceptor fluorophore is no longer in proximity to the donor fluorophore, which prevents fluorescent energy transfer and, subsequently, a loss of Alexa Fluor®647 emission at λ665 nm.
# (§1) The competition of the compounds of formula (I) with Reference Compound X for binding to the BET family (BRD2, BRD3, BRD4 and BRDT) was assessed using protein truncates spanning both bromodomain 1 (BD1) and bromodomain 2 (BD2). In order to monitor differential binding to either BD1 or BD2, single residue mutations of key tyrosines to alanine were made in the acetyl lysine binding pockets. To validate this approach, a double residue mutant tandem domain protein was produced for each of the BET family members. Utilising a Fluorescence Polarisation approach, binding affinities for each of the single and double mutants for Reference Compound X were determined.
# Final purification was completed by Superdex 200 prep grade size exclusion column. Purified protein was stored at −80° C. in 20 mM HEPES pH 7.5 and 100 mM NaCl.
# Protocol for Bromodomain BRD2, 3, 4 and T, BD1+BD2 mutant TR-FRET competition assays: All assay components were dissolved in an assay buffer composing of 50 mM HEPES pH7.4, 50 mM NaCl, 5% Glycerol, 1 mM DTT and 1 mM CHAPS. […] The solution containing bromodomain and Reference Compound X was added to dose response dilutions of test compound or DMSO vehicle (a maximum of 0.5% DMSO is used in this assay) in Greiner 384 well black low volume microtitre plates and subsequently incubated for 30 minutes at rt. An equal volume of 3 nM of anti-6*His Europium chelate was added to all wells, followed by a further 30 minute incubation at rt. TR-FRET was detected using a Perkin Elmer Multimode plate reader, by exciting the donor fluorophore at λ337 nm and subsequently, after a delay of 50 μsecs, measuring emission of the donor and acceptor fluorophores at λ615 nm and λ665 nm, respectively. In order to control these assays, 16 replicates each of uninhibited (DMSO vehicle) and inhibited (10*IC50 concentrations of Example 11 of WO 2011/054846A1) TR-FRET assays were included on every microtitre plate.
# cA four parameter curve fit of the following form was then applied:
# y=a+((b−a)/(1+(10^x/10^c)^d) • Where ‘a’ is the minimum, ‘b’ is the […], ‘c’ is the pIC50 and ‘d’ is the […].
# Those of skill in the art will recognise that in vitro binding assays and cell-based assays for functional activity are subject to experimental variability. Accordingly, it is to be understood that the pIC50 values given below are exemplary only. pIC50 values are expressed as log10 units.
row,SMILES,IC50 [µM]
1,"CNC(=O)c1cc(C(=O)N[C@H]2CC[C@H](O)CC2)c([C@@H](OC)c2ccccc2)o1 (single isomer, unassigned) [Example 108, N^4-((1r,4S)-4-Hydroxycyclohexyl)-5-((S*)-methoxy(phenyl)methyl)-N^2-methylfuran-2,4-dicarboxamide]",1 to 10
2,"CNC(=O)c1cc(C(=O)N[C@H]2[C@@H]3COC[C@@H]32)c([C@H](CC#N)c2cccc(Cl)c2)o1 (single isomer, unassigned) [Example 88, N^4-((1R,5S,6r)-3-Oxabicyclo[3.1.0]hexan-6-yl)-5-((R*)-1-(3-chlorophenyl)-2-cyanoethyl)-N^2-methylfuran-2,4-dicarboxamide]",1 to 10
3,"CNC(=O)c1cc(C(=O)N[C@H]2CC[C@H](O)CC2)c([C@@H](C)c2ccc(OC)c(Cl)c2)o1 (single isomer, unassigned) [Example 95, 5-((S*)-1-(3-Chloro-4-methoxyphenyl)ethyl)-N^4-((1r,4S)-4-hydroxycyclohexyl)-N^2-methylfuran-2,4-dicarboxamide]",1 to 10
4,"CNC(=O)c1cc(C(=O)NCC2CC2)c([C@@H](C)c2ccccc2)o1 [Example 104, (S)-N^4-(Cyclopropylmethyl)-N^2-methyl-5-(1-phenylethyl)furan-2,4-dicarboxamide]",1 to 10
5,"CNC(=O)c1cc(C(=O)N[C@H]2CC[C@H](O)CC2)c([C@@H](C)c2ccc(OC)cc2)o1 (single isomer, unassigned) [Example 102, N^4-((1r,4S)-4-Hydroxycyclohexyl)-5-((S*)-1-(4-methoxyphenyl)ethyl)-N^2-methylfuran-2,4-dicarboxamide]",1 to 10
6,"CNC(=O)c1cc(C(=O)N[C@H]2CC[C@H](O)CC2)c([C@@H](C)c2ccc(OC)c(OC)c2)o1 (single isomer, unassigned) [Example 106, 5-((S*)-1-(3,4-Dimethoxyphenyl)ethyl)-N^4-((1r,4S)-4-hydroxycyclohexyl)-N^2-methylfuran-2,4-dicarboxamide]",1 to 10
7,"CNC(=O)c1cc(C(=O)N[C@H]2[C@@H]3COC[C@@H]32)c([C@H](C)c2cccc(Cl)c2)o1 (single isomer, unassigned) [Example 89, N^4-((1R,5S,6r)-3-Oxabicyclo[3.1.0]hexan-6-yl)-5-((R*)-1-(3-chlorophenyl)ethyl)-N^2-methylfuran-2,4-dicarboxamide]",1 to 10
8,"CNC(=O)c1cc(C(=O)N[C@H]2CC[C@H](O)CC2)c([C@@H](C)c2ccc(C)c(Cl)c2)o1 (single isomer, unassigned) [Example 98, 5-((S*)-1-(3-Chloro-4-methylphenyl)ethyl)-N^4-((1r,4S)-4-hydroxycyclohexyl)-N^2-methylfuran-2,4-dicarboxamide]",1 to 10
9,"CNC(=O)c1cc(C(=O)N[C@H]2C[C@@H]2C)c(C(C)c2ccccc2)o1 (single isomer, unassigned) [Example 96, N^2-methyl-N^4-((1S,2S)-2-Methylcyclopropyl)-5-((S*)-1-phenylethyl)furan-2,4-dicarboxamide]",1 to 10
10,"CNC(=O)c1cc(C(=O)N[C@H]2CC[C@H](O)CC2)c([C@@H](C)c2cc(Cl)cc(OC)c2)o1 (single isomer, unassigned) [Example 94, 5-((S*)-1-(3-Chloro-5-methoxyphenyl)ethyl)-N^4-((1r,4S)-4-hydroxycyclohexyl)-N^2-methylfuran-2,4-dicarboxamide]",1 to 10
11,"CNC(=O)c1cc(C(=O)N[C@H]2CC[C@H](O)CC2)c([C@@H](OC)c2cccc(Cl)c2)o1 (single isomer, unassigned) [Example 93, 5-((S*)-(3-Chlorophenyl)(methoxy)methyl)-N^4-((1r,4S)-4-hydroxycyclohexyl)-N^2-methylfuran-2,4-dicarboxamide]",1 to 10
12,"CNC(=O)c1cc(C(=O)N[C@H]2CC[C@H](O)CC2)c([C@@H](CO)c2ccccc2)o1 (single isomer, unassigned) [Example 101, 5-((R*)-2-Hydroxy-1-phenylethyl)-N^4-((1r,4R)-4-hydroxycyclohexyl)-N^2-methylfuran-2,4-dicarboxamide]",1 to 10

# System: BET family (BRD2, BRD3, BRD4 and BRDT) tandem bromodomain proteins
# Experiment: Fluorescence Polarisation binding of Reference Compound X to single and double mutant tandem BET proteins
# Design: species or system Human
# Conditions: compared with the corresponding non-mutated BET protein
# Procedure: as §1, with “determined. […] The affinities of the single mutated bromdomain tandem proteins for Reference Compound X were equi-potent with the corresponding non-mutated BET protein. […] In the TR-FRET competition assay, Reference Compound X is used at a concentration that is equivalent to the Kd for the non-mutated bromodomain, which ensures that no binding at the mutated bromodomain is detected.” for “determined.”
# Protein production: Recombinant Human Bromodomains [(BRD2 (1-473) (Y113A) and (Y386A), BRD3 (1-435) (Y73A) and (Y348A) BRD4 (1-477) (Y97A) and (Y390A) and BRDT (1-397) (Y66A) and (Y309A)] were expressed in E. coli cells (in pET15b vector for BRD2/3/4 and in pET28a vector for BRDT) with a 6-His tag at the N-terminal. The His-tagged Bromodomain pellet was resuspended in 50 mM HEPES (pH7.5), 300 mM NaCl, 10 mM imidazole & 1 μL/mL protease inhibitor cocktail and extracted from the E. coli cells using sonication and purified using a nickel sepharose high performance column, the proteins were washed and then eluted with a linear gradient of 0-500 mM imidazole with buffer 50 mM HEPES (pH7.5), 150 mM NaCl, 500 mM imidazole, over 20 column volumes. Final purification was completed by Superdex 200 prep grade size exclusion column. Purified protein was stored at −80° C. in 20 mM HEPES pH 7.5 and 100 mM NaCl. Protein identity was confirmed by peptide mass fingerprinting and predicted molecular weight confirmed by mass spectrometry.
row,SMILES,affinities of the single mutated bromdomain tandem proteins
1,COc1ccc2c(c1)C(c1ccc(Cl)cc1)=N[C@@H](CC(=O)NCCCCCNC(=O)CCCCCC1(C)/C(=C/C=C/C=C/C3=[N+](CCCCS(=O)(=O)O)c4ccc(S(=O)(=O)O)cc4C3(C)C)N(CCCCS(=O)(=O)[O-])c3ccc(S(=O)(=O)O)cc31)c1nnc(C)n1-2 (stereo partly drawn) [Reference Compound X],equi-potent

# Same assay, conditions: double mutant tandem proteins in comparison to non mutated, wild type tandem BET proteins
row,SMILES,reduction in Kd [fold]
1,COc1ccc2c(c1)C(c1ccc(Cl)cc1)=N[C@@H](CC(=O)NCCCCCNC(=O)CCCCCC1(C)/C(=C/C=C/C=C/C3=[N+](CCCCS(=O)(=O)O)c4ccc(S(=O)(=O)O)cc4C3(C)C)N(CCCCS(=O)(=O)[O-])c3ccc(S(=O)(=O)O)cc31)c1nnc(C)n1-2 (stereo partly drawn) [Reference Compound X],> 1000

# Same assay, conditions: single mutations of Tyrosine to Alanine
row,SMILES,reduction of the Kd of the interaction between the mutated bromodomain and Reference Compound X [fold]
1,COc1ccc2c(c1)C(c1ccc(Cl)cc1)=N[C@@H](CC(=O)NCCCCCNC(=O)CCCCCC1(C)/C(=C/C=C/C=C/C3=[N+](CCCCS(=O)(=O)O)c4ccc(S(=O)(=O)O)cc4C3(C)C)N(CCCCS(=O)(=O)[O-])c3ccc(S(=O)(=O)O)cc31)c1nnc(C)n1-2 (stereo partly drawn) [Reference Compound X],> 1000
